Measurements published in ChEMBL document CHEMBL1147166, “Structure-activity relationships of methoctramine-related polyamines as muscarinic antagonist: effect of replacing the inner polymethylene chain with cyclic moieties” (Bioorg Med Chem, 2007).

How the values were obtained:
[1] = test system: Mus musculus; experiment: Antinociceptive activity in mouse assessed as licking latency at 1.0 ug, icv after 60 mins by hot plate method; type: functional
[2] = test system: Mus musculus; experiment: Antinociceptive activity in mouse assessed as licking latency at 10 ug, icv after 15 mins by hot plate method; type: functional
[3] = target: T1, Muscarinic acetylcholine receptor M4 (Homo sapiens) (UniProt P08173); experiment: Antagonist potency at muscarinic receptor M4 in rabbit vas deferens; type: functional, tissue-based; conditions: Oryctolagus cuniculus, target entry is the homologue from another species
T1 sequence (whole entry): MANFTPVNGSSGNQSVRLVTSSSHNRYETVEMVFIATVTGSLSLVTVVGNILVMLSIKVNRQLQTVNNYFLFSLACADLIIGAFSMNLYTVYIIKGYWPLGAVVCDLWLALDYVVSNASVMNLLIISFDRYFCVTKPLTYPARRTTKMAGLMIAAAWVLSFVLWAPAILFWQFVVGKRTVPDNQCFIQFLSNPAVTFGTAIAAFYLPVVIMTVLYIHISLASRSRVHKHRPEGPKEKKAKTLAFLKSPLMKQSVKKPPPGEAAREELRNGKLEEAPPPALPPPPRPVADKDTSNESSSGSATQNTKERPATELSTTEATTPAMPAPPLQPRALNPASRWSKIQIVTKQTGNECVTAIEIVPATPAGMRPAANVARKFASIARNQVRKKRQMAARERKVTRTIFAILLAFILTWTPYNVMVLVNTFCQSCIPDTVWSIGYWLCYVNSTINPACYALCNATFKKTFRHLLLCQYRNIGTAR

[4] = target: Cholinesterase (Homo sapiens, UniProt P06276); experiment: Inhibition of human serum recombinant BChE after 20 mins
Sequence of Cholinesterase (P06276 whole entry): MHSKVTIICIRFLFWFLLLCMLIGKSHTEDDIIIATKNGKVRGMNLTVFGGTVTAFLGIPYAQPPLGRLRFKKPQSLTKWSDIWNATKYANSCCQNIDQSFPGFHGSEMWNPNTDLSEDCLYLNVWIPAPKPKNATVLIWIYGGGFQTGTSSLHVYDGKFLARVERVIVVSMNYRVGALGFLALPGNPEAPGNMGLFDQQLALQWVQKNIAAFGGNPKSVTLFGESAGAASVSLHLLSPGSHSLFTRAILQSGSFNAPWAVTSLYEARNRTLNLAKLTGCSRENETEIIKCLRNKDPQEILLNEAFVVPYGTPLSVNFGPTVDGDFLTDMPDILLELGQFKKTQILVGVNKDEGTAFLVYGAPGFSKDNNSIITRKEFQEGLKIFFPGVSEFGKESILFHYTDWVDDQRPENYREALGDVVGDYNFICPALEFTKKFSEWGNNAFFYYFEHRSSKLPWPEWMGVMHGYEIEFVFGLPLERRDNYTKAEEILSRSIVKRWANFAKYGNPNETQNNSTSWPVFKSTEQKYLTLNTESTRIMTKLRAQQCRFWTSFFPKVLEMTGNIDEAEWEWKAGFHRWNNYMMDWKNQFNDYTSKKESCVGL

[5] = target: T2, Muscarinic acetylcholine receptor M2 (Homo sapiens, UniProt P08172); experiment: Displacement of [3H] N-methyl-scopolamine chloride from human muscarinic receptor M2 expressed in CHO cells; type: cell-based
T2 sequence (P08172 whole entry): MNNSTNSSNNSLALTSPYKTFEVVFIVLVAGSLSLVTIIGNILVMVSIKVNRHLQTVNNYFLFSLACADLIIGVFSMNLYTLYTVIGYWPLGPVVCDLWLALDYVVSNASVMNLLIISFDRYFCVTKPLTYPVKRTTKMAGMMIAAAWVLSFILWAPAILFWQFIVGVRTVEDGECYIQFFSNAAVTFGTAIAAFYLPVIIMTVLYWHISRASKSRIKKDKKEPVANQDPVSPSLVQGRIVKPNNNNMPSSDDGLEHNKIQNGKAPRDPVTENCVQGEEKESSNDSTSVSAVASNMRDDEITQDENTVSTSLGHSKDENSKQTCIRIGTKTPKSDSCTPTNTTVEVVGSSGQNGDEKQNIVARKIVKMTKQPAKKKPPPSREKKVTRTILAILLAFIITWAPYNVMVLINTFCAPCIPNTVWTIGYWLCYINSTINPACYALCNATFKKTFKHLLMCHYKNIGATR

[6] = target: T3, Muscarinic acetylcholine receptor M4 (Homo sapiens, UniProt P08173); experiment: Displacement of [3H] N-methyl-scopolamine chloride from human muscarinic receptor M4 expressed in CHO cells; type: cell-based
T3 sequence (P08173 whole entry): T1 sequence (whole entry)

[7] = test system: Mus musculus; experiment: Antinociceptive activity in mouse assessed as licking latency at 0.1 ug, icv after 60 mins by hot plate method; type: functional

In the case of `COc1ccccc1CNCCCCCCN1CCC(CCC2CCN(CCCCCCNCc3ccccc3OC)CC2)CC1`, the Time [1] is reported as 19.5 s, the Time [2] is reported as 13.3 s and the pKb [3] is reported as 5.56. The IC50 [4] was 10500 nM, the Ki [5] was 6.03 nM and the Ki [6] was 40.7 nM. For the same compound, the Time [7] was 18.6 s.
